Results from patent US5364848A, “Substituted cephalosporin sulfones as anti-inflammatory and antidegenerative agents” (Merck & Co., Inc., priority 1992, dated 1994).
Values after ≈ are worked out from the molar mass of the structure shown. Where two headings read alike, the source gives them in different places.

Biological target: T1, Human Polymorphonuclear Leukocyte Elastase (Homo sapiens, UniProt P08246)
T1 sequence (P08246 30-247 limits assumed): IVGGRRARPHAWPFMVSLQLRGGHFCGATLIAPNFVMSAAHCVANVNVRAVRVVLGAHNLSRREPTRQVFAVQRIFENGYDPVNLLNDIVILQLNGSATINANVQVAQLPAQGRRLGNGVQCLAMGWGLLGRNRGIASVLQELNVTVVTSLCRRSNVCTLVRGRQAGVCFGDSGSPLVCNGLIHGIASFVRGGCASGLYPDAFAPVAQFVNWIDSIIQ
Assay: biochemical
Description: Protocol--Enzyme Assays for the Inhibition of Human Polymorphonuclear Leukocyte Elastase Via Hydrolysis of N-t-Boc-alanyl-alanyl-prolylalanine-p-nitroanilide Reagents:
0.05M TES (N-tris[hydroxymethyl]methyl-2-amino-ethanesulfonic acid) Buffer, pH 7.5.
0.2 mMN-t-Boc-alanyl -alanyl -prolyl-alanine-p-nitroanilide (Boc-AAPAN).
To prepare substrate, the solid (m.w. 550) was first dissolved in 10.0 ml DMSO. Buffer at pH 7.5 was then added to a final volume of 100 ml.
Crude extract of human polymorphonuclear leukocytes (PMN) containing elastase activity.
Inhibitors (cephalosporin sulfone esters) to be tested dissolved in DMSO just before use.
To 1.0 ml of 0.2 mM Boc-AAPAN in a cuvette, 0.01-0.1 ml of DMSO with or without inhibitor was added. After mixing, a measurement was taken at 410 mμ to detect any spontaneous hydrolysis due to presence of test compound. 0.05 Milliliters of PMN extract was then added and the ΔOD/min at 410 mμ was measured and recorded. Beckman model 35 spectrophotometer was used.
The elastase activity in the crude PMN extract may vary from one preparation to another. A control of each new batch is run, and the volume added in the assay procedure is adjusted according to activity.

[1] = Table II, 50% inhibition of the enzyme activity 2 minutes after zero time, crude PMN extract, pH 7.5, 0.2 mM Boc-AAPAN, read-out: ED50 (the source's name) (converted)
[2] = Table II, 50% inhibition of the enzyme activity 2 minutes after zero time, crude PMN extract, pH 7.5, 0.2 mM Boc-AAPAN

SMILES	IC50 [1] [nM]	also measured
CO[C@H]1C(=O)N2C(C(=O)OC(C)(C)C)=C(COC(=O)CCC(=O)O)CS(=O)(=O)C12 (stereo partly drawn) [R1=OCH3, M=CH2OCOCH2CH2COOH, B=OtBu, Q=H, t-Butyl 3-(3-[hydroxycarbonyl]Propanoyloxymethyl)-7α-methoxy-8-oxo-5-thia-1-azabicyclo[4.2.0]oct-2-ene-2-carboxylate-5,5-dioxide]	231	
CO[C@H]1C(=O)N2C(C(=O)OC(C)(C)C)=C(COC(=O)NCC(=O)O)CS(=O)(=O)C12 (stereo partly drawn) [R1=OCH3, M=CH2OCONHCH2COOH, B=OtBu, Q=H, t-Butyl 3-hydroxycarbonylmethylaminocarbonyloxymethyl-7α-methoxy-8-oxo-5-thia-1-azabicyclo[4.2.0]oct-2-ene-2-carboxylate-5,5-dioxide]	92.1	
CO[C@H]1C(=O)N2C(C(=O)OC(C)(C)C)=C(COC(C)=O)C(C)S(=O)(=O)[C@H]12 (stereo partly drawn) [R1=OCH3, M=CH2OCOCH3, B=OtBu, Q=CH3]	77	
CNCC(=O)OCC1=C(C(=O)OC(C)(C)C)N2C(=O)C(OC)C2S(=O)(=O)C1 (stereo not drawn) [R1=OCH3, M=CH2OCOCH2NHCH3, B=OtBu, Q=H]	742	
COC1C(=O)N2C(C(=O)N3CCC[C@H]3C(=O)O)=C(COC(C)=O)CS(=O)(=O)C12 (stereo partly drawn) [R1=OCH3, M=CH2OCOCH3, B=drawing 33, Q=H]	12000	
COC1C(=O)N2C(C(=O)OC(C)(C)C)=C(CSc3nnc(C)s3)CS(=O)(=O)C12 (stereo not drawn) [R1=OCH3, M=drawing 42, B=OtBu, Q=H]		IC50: 2230 nM
C=C1C(COC(C)=O)=C(C(=O)OC(C)(C)C)N2C(=O)[C@H](OC)[C@H]2S1(=O)=O [R1=OCH3, M=CH2OCOCH3, B=OtBu, Q=CH2, t-Butyl 3-acetyloxymethyl-7α-methoxy-4-methylene-8-oxo-5-thia-1-azabicyclo [4.2.0]oct-2-ene-2-carboxylate-5,5-dioxide]	77.4	
CCOC(=O)COC(=O)C1=C(C)CS(=O)(=O)C2C(OC)C(=O)N12 (stereo not drawn) [R1=OCH3, M=CH3, B=OCH2COOC2H5, Q=H]	1440	
COC1C(=O)N2C(C(=O)OC(C)(C)C)=C(COC(=O)CN(C)C(=O)OC(C)(C)C)CS(=O)(=O)C12 (stereo not drawn) [R1=OCH3, M=drawing 38, B=OtBu, Q=H]	198	
CCC1C(=O)N2C(C(=O)OC(C)(C)C)=C(COC(=O)C(N)c3ccccc3)CS(=O)(=O)C12 (stereo not drawn) [R1=C2H5, M=drawing 32, B=OtBu, Q=H]	861	
CCC1C(=O)N2C(C(=O)OC(C)(C)C)=C(COC(=O)CCC(=O)O)CS(=O)(=O)C12 (stereo not drawn) [R1=C2H5, M=CH2OCOCH2CH2COOH, B=OtBu, Q=H]	1850	
COC1C(=O)N2C(C(=O)OC(C)(C)C)=C(COC(C)=O)C(Cc3ccccc3)S(=O)(=O)C12 (stereo not drawn) [R1=OCH3, M=CH2OCOCH3, B=OtBu, Q=CH2.phi.]	32200	
CC(=O)OCC1=C(C(=O)OC(C)(C)C)N2C(=O)[C@H](Cl)[C@H]2S(=O)(=O)C1 [R1=Cl, M=CH2OCOCH3, B=OtBu, Q=H, t-Butyl 3-acetyloxymethyl-7α-chloro-8-oxo-5-thia-1-azabicyclo[4.2.0]oct-2-ene-2-carboxylate-5.5-dioxide]		IC50: 52.7 nM
CC(=O)OCC1=C(C(=O)OC(C)(C)C)N2C(=O)C(Oc3ccccc3)C2S(=O)(=O)C1 (stereo not drawn) [R1=OC6H5, M=CH2OCOCH3, B=OtBu, Q=H]		IC50: 1830 nM
COC1C(=O)N2C(C(=O)OC(C)(C)C)=C(CO)CS(=O)(=O)C12 (stereo not drawn) [R1=OCH3, M=CH2OH, B=OtBu, Q=H]	2400	
COC1C(=O)N2C(C(=O)N(C)C)=C(COC(C)=O)CS(=O)(=O)C12 (stereo not drawn) [R1=OCH3, M=CH2OCOCH3, B=N(CH3)2, Q=H]	1730	
CCC1C(=O)N2C(C(=O)OC(C)(C)C)=C(COC(=O)NC(C)C(=O)O)CS(=O)(=O)C12 (stereo not drawn) [R1=C2H5, M=drawing 31, B=OtBu, Q=H]	2240	
CO[C@H]1C(=O)N2C(C(=O)OC(C)(C)C)=C(CS(=O)(=O)c3ccccc3)CS(=O)(=O)C12 (single isomer, unassigned) [R1=OCH3, M=CH2SO2.phi., B=OtBu, Q=H, t-Butyl 3-phenylsulfonylmethyl-7α-methoxy-8-oxo-5-thia-1-azabicyclo[4.2.0]oct-2-ene-2-carboxylate-5,5-dioxide]		IC50: 437 nM
CO[C@H]1C(=O)N2C(C(=O)OC(C)(C)C)=C(CSc3ccccc3)CS(=O)(=O)C12 (stereo partly drawn) [R1=OCH3, M=CH2S.phi., B=OtBu, Q=H, t-Butyl 3-phenylthiomethyl-7α-methoxy-8-oxo-5-thia-1-azabicyclo[4.2.0]oct-2-ene-2-carboxylate-5,5-dioxide]		ED50 [2]: 0.4 µg/mL (≈ 0.94 µM)
CC(=O)OCC1=C(C(=O)OC(C)(C)C)N2C(=O)C(F)(F)C2S(=O)(=O)C1 (stereo not drawn)		IC50 (Table IIa, 50% inhibition of the enzyme activity 2 minutes after zero time, crude PMN extract, pH 7.5, 0.2 mM Boc-AAPAN, read-out: ED50 (the source's name) (converted)): 131 nM

SMILES	IC50 [1] [nM]	also measured
CO[C@H]1C(=O)N2C(C(=O)OC(C)(C)C)=C(CCl)CS(=O)(=O)C12 (stereo partly drawn) [R1=OCH3, M=CH2Cl, B=OtBu, Q=H, t-Butyl 3-chloromethyl-7α-methoxy-8-oxo-5-thia-1-azabicyclo[4.2.0]oct-2-ene-2-carboxylate-5,5-dioxide]		ED50 [2]: 0.15 µg/mL (≈ 0.426 µM)
CO[C@H]1C(=O)N2C(C(=O)NCC(=O)OC(C)(C)C)=C(COC(C)=O)CS(=O)(=O)[C@H]12 [R1=OCH3, M=CH2OCOCH3, B=NHCH2COOtBu, Q=H, N-(t-Butoxycarbonyl)methyl 3-acetyloxymethyl-7α-methoxy-8-oxo-5-thia-1-azabicyclo[4.2.0]oct-2-ene-2-carboxamide-5,5 dioxide]	2080	
CC(=O)OCC1=C(C(=O)OC(C)(C)C)N2C(=O)C(OC=O)C2S(=O)(=O)C1 (stereo not drawn) [R1=drawing 36, M=CH2OCOCH3, B=OtBu, Q=H]	385	
COC(=O)C1=C(COC(C)=O)CS(=O)(=O)C2C(OC=O)C(=O)N12 (stereo not drawn) [R1=drawing 37, M=CH2OCOCH3, B=OCH3, Q=H]	288	
COCC1=C(C(=O)OC(C)(C)C)N2C(=O)[C@H](OC)C2S(=O)(=O)C1 (stereo partly drawn) [R1=OCH3, M=CH2OCH3, B=OtBu, Q=H]		IC50: 864 nM
COC1C(=O)N2C(C(=O)OC(C)(C)C)=C(CSc3nnnn3C)CS(=O)(=O)C12 (stereo not drawn) [R1=OCH3, M=drawing 45, B=OtBu, Q=H]	1390	
COC1C(=O)N2C(C(=O)OC(C)(C)C)=C(COC(=O)c3ccccc3C(=O)O)CS(=O)(=O)C12 (stereo not drawn)	1250	
CO[C@H]1C(=O)N2C(C(=O)OC(C)(C)C)=C(C[S+]([O-])c3ccccc3)CS(=O)(=O)C12 (single isomer, unassigned) [R1=OCH3, M=CH2SO.phi., B=OtBu, Q=H, t-Butyl 3-phenylsulfinylmethyl-7α-methoxy-8-oxo-5-thia-1-azabicyclo[4.2.0]oct-2-ene-2-carboxylate-5,5-dioxide]		IC50: 181 nM
COC1C(=O)N2C(C(=O)OC(C)(C)C)=C(CS(C)(=O)=O)CS(=O)(=O)C12 (stereo not drawn) [R1=OCH3, M=CH2SO2CH3, B=OtBu, Q=H]	253	
COC1C(=O)N2C(C(=O)OC(C)(C)C)=C(CSc3cn[nH]n3)CS(=O)(=O)C12 (stereo not drawn) [R1=OCH3, M=drawing 44, B=OtBu, Q=H]	1440	
COC1C(=O)N2C(C(=O)OC(C)(C)C)=C(CSc3nc4ccccc4s3)CS(=O)(=O)C12 (stereo not drawn) [R1=OCH3, M=drawing 43, B=OtBu, Q=H]	6220	
COC1C(=O)N2C(C(=O)OCC=C(C)C)=C(COC(C)=O)CS(=O)(=O)C12 (stereo not drawn)	2580	
CO[C@H]1C(=O)N2C(C(=O)OCc3ccccc3)=C(COC(C)=O)CS(=O)(=O)[C@H]12 [R1=OCH3, M=CH2OCOCH3, B=OCH2.phi., Q=H, Benzyl 3-acetyloxymethyl-7α-methoxy-8-oxo-5-thia-1-azabicyclo[4.2.0]oct-2-ene-2-carboxylate-5,5-dioxide]		IC50: 73.3 nM
COC(=O)C1=C(COC(C)=O)CS(=O)(=O)C2C(OC)C(=O)N12 (stereo not drawn) [R1=OCH3, M=CH2OCOCH3, B=OCH3, Q=H]		IC50: 240 nM
CCC1C(=O)N2C(C(=O)OCc3ccccc3)=C(COC(C)=O)CS(=O)(=O)C12 (stereo not drawn) [R1=C2H5, M=CH2OCOCH3, B=OCH2.phi., Q=H]	982	
CC(=O)OCC1=C(C(=O)OCc2ccccc2)N2C(=O)C(OC(C)=O)C2S(=O)(=O)C1 (stereo not drawn) [R1=OCOCH3, M=CH2OCOCH3, B=OCH2.phi., Q=H]	914	
CO[C@H]1C(=O)N2C(C(=O)OC(C)(C)C)=C(C)CS(=O)(=O)C12 (stereo partly drawn) [R1=OCH3, M=CH3, B=OtBu, Q=H, t-Butyl 3-methyl-7α-methoxy-8-oxo-5-thia-1-azabicyclo [4.2.0]oct-2-ene-2-carboxylate-5,5-dioxide]		ED50 [2]: 1.0 µg/mL (≈ 3.15 µM)
CCOC(=O)OCC1=C(C(=O)OC(C)(C)C)N2C(=O)C(OC)C2S(=O)(=O)C1 (stereo not drawn) [R1=OCH3, M=CH2OCOOC2H5, B=OtBu, Q=H]	740	
CC(=O)OCC1=C(C(=O)OC(C)(C)C)N2C(=O)[C@H](F)[C@H]2S(=O)(=O)C1 [R1=F, M=CH2OCOCH3, B=OtBu, Q=H, t-Butyl 3-acetyloxymethyl-7α-fluoro-8-oxo-5-thia-1-azabicyclo[4.2.0]oct-2-ene-2-carboxylate-5,5-dioxide]		IC50: 82.6 nM
